Laboratory results as given in ChEMBL document CHEMBL5506059, “Cyanomethylquinolones as a New Class of Potential Multitargeting Broad-Spectrum Antibacterial Agents” (J Med Chem, 2024).
Converted amounts (≈) assume the structure as drawn. The source made the active and inactive calls. The rule behind the calls is not given here.

Columns and labels:
[1] = tested on: Staphylococcus aureus; assay: Antibacterial activity against Staphylococcus aureus ATCC 29213 assessed as inhibition of bacterial growth incubated for 24 hrs; format: functional
[2] = tested on: Escherichia coli; assay: Antibacterial activity against Escherichia coli clinical isolate assessed as inhibition of bacterial growth incubated for 24 hrs; format: functional
[3] = tested on: Pseudomonas aeruginosa; assay: Antibacterial activity against Pseudomonas aeruginosa clinical isolate assessed as inhibition of bacterial growth incubated for 24 hrs; format: functional
[4] = tested on: Acinetobacter baumannii; assay: Antibacterial activity against Acinetobacter baumannii clinical isolate assessed as inhibition of bacterial growth incubated for 24 hrs; format: functional
[5] = tested on: Staphylococcus aureus; assay: Potency index, ratio of norfloxacin MIC to test compound MIC for antibacterial activity against Staphylococcus aureus clinical isolate assessed as inhibition of bacterial growth incubated for 24 hrs; format: functional
[6] = tested on: Staphylococcus aureus; assay: Potency index, ratio of clinafloxacin MIC to test compound MIC for antibacterial activity against Staphylococcus aureus clinical isolate assessed as inhibition of bacterial growth incubated for 24 hrs; format: functional
[7] = tested on: Pseudomonas aeruginosa; assay: Potency index, ratio of ciprofloxacin MIC to test compound MIC for antibacterial activity against Pseudomonas aeruginosa clinical isolate assessed as inhibition of bacterial growth incubated for 24 hrs; format: functional
[8] = tested on: Pseudomonas aeruginosa; assay: Potency index, ratio of clinafloxacin MIC to test compound MIC for antibacterial activity against Pseudomonas aeruginosa clinical isolate assessed as inhibition of bacterial growth incubated for 24 hrs; format: functional
[9] = tested on: Streptococcus pyogenes; assay: Antibacterial activity against Streptococcus pyogenes ATCC 19615 assessed as inhibition of bacterial growth incubated for 24 hrs; format: functional
[10] = tested on: Staphylococcus epidermidis; assay: Antibacterial activity against Staphylococcus epidermidis ATCC 12228 assessed as inhibition of bacterial growth incubated for 24 hrs; format: functional
[11] = tested on: Streptococcus pyogenes; assay: Potency index, ratio of norfloxacin MIC to test compound MIC for antibacterial activity against Streptococcus pyogenes ATCC 19615 assessed as inhibition of bacterial growth incubated for 24 hrs; format: functional
[12] = tested on: Streptococcus pyogenes; assay: Potency index, ratio of ciprofloxacin MIC to test compound MIC for antibacterial activity against Streptococcus pyogenes ATCC 19615 assessed as inhibition of bacterial growth incubated for 24 hrs; format: functional
[13] = tested on: Enterococcus faecalis; assay: Potency index, ratio of ciprofloxacin MIC to test compound MIC for antibacterial activity against vancomycin-resistant Enterococcus faecalis clinical isolate p1-2007225053 assessed as inhibition of bacterial growth incubated for 24 hrs; format: functional
[14] = tested on: Staphylococcus aureus; assay: Antibiofilm activity in methicillin resistant Staphylococcus aureus assessed as biofilm eradication measured after 24 hrs by crystal violet staining based analysis; format: functional, organism-based; conditions: dose 1-2 µg/ml
[15] = tested on: Pseudomonas aeruginosa; assay: Induction of intracellular ROS generation in Pseudomonas aeruginosa assessed as increase in fluorescence intensity at 2 ug/ml incubated for 6 hrs by DCFH-DA dye based fluorescence analysis; format: functional, organism-based; conditions: dose 2.0 µg/ml
[16] = tested on: Pseudomonas aeruginosa; assay: Induction of morphological changes in Pseudomonas aeruginosa assessed as appearance of concaved bacterial surface at 2 ug/ml incubated for 3 hrs by SEM analysis; format: functional, organism-based; conditions: dose 2.0 µg/ml
[17] = tested on: Pseudomonas aeruginosa; assay: Antibacterial activity against Pseudomonas aeruginosa assessed as reduction in metabolic activity by measuring reduction in fluorescence intensity at 0.5 to 2 times MIC incubated for 6 hrs by alamar blue assay; format: functional, organism-based
[18] = tested on: Staphylococcus aureus; assay: (§1) Antibacterial activity against methicillin resistant Staphylococcus aureus infected in female ICR mouse assessed as log reduction in bacterial load at 10 mg/kg pre-infected with bacteria for 24 hrs followed by compound administration on wound site every 6 hrs for 2 times and measured 36 hrs post infection; format: functional; conditions: time 12 hrs
[19] = tested on: Staphylococcus aureus; assay: as §1, with “20” for “10”; format: functional; conditions: time 12 hrs

N#CCc1cc2c(cc1F)c(=O)c(C(=O)O)cn2C1CC1
MIC [1]: 1 µg/mL (≈ 3.49 µM) | MIC [2]: 2 µg/mL (≈ 6.99 µM) | MIC [3]: 0.25 µg/mL (≈ 0.873 µM) | MIC [4]: 0.25 µg/mL (≈ 0.873 µM) | Ratio [5]: 32 | Ratio [6]: 2 | Ratio [7]: 8 | Ratio [8]: 2 | MIC [9]: 0.25 µg/mL (≈ 0.873 µM) | MIC [10]: 0.5 µg/mL (≈ 1.75 µM) | Ratio [11]: 128 | Ratio [12]: 64 | Ratio [13]: 2 | Activity [14]: Dose-Dependent Effect | Activity [15]: Active | Activity [16]: Active | Activity [17]: Active | log(activity) [18]: ~2.5 | log(activity) [19]: ~4
